Test results reported in patent US8618289B2 (Ambit Biosciences Corporation, priority 2008, dated 2013).
Structures can show the parent of a compound that is named as a salt.

Experiments:
[1] = tested on: MEK1 phosphorylation in the A375 human melanoma cell line; test: cells; conditions: A-375, read-out: pMEK IC50
Method: A375 cells (from American Type Culture Collection) were plated at 50,000 cells per well in DMEM (Mediatech) with 10% fetal bovine serum (Omega Scientific) into a 96 well plate and incubated overnight in a 37° C. incubator with 10% CO2. The cells were then washed with PBS and the medium replaced with 0.5% FBS for incubation overnight. […] The cells were incubated with compound or control for two hours at 37° C. The compound solution was aspirated off and the cells washed with cold PBS. […] The plate was centrifuged for 30 minutes to pellet out the cell debris. The cleared lysates were transferred to a 96-well Nunc plate and the ELISA protocol described by the manufacturer in Catalog #KHO0321 or KHO0291 was followed.

A375 cells = test: cells; conditions: Homo sapiens, A-375, read-out: A375 Viability EC50
RAF kinases [2] = target: RAF kinases (Homo sapiens, UniProt P04049); test: biochemical
RAF kinases [3] = target: RAF kinases (Homo sapiens, UniProt P15056); test: biochemical
Chain of RAF kinases (Homo sapiens, UniProt P15056) (P15056 whole entry): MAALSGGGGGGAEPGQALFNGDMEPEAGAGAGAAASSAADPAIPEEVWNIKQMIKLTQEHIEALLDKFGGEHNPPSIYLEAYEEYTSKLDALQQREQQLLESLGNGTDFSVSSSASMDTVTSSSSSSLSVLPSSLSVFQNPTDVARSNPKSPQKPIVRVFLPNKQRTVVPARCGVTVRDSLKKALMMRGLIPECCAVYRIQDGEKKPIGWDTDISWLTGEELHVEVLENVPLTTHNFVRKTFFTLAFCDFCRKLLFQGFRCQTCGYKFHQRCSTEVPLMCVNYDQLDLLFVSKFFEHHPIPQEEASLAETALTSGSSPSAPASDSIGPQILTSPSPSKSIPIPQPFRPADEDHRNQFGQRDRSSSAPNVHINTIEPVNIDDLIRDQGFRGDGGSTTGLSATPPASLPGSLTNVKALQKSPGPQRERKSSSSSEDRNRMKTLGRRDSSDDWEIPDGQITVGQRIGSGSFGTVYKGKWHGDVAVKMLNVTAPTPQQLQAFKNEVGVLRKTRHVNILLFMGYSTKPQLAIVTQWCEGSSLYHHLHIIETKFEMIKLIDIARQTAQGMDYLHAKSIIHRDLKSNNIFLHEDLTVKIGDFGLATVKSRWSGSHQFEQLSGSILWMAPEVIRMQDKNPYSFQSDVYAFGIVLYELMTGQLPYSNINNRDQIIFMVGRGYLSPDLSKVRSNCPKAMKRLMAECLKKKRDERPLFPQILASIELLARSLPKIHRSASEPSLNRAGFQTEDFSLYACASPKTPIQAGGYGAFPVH

Chain of RAF kinases (Homo sapiens, UniProt P04049) (P04049 whole entry): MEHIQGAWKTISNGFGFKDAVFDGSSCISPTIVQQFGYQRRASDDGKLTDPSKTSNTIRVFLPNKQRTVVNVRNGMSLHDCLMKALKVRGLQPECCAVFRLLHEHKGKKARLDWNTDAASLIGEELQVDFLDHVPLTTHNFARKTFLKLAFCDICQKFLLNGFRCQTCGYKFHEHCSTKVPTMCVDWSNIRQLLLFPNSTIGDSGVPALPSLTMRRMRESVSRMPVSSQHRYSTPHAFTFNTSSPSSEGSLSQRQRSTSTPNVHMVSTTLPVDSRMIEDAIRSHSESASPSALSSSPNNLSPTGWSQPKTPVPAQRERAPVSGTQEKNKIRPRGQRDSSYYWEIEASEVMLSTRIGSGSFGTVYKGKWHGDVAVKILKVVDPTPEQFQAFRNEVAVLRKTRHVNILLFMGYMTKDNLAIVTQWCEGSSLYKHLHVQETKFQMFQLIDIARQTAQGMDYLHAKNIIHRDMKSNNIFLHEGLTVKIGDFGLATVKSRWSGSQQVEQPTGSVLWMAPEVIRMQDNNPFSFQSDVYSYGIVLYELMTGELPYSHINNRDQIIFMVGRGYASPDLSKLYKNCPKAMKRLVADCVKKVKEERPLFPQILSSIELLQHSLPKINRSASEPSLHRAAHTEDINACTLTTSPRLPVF

Compound | IC50 [1] | EC50 (A375 cells) | Kd (RAF kinases [2]) | Kd (RAF kinases [3])
COc1cc2ncnc(Oc3cccc(NC(=O)Nc4cc(C(C)(C)C)on4)c3)c2cc1OCCCN1CCC(CO)CC1 [Ex 24, 1-(5-tert-butylisoxazol-3-yl)-3-(3-(6-(3-(4-(hydroxymethyl)piperidin-1-yl)propoxy)-7-methoxyquinazolin-4-yloxy)phenyl)urea] | < 250 nM | 500 to 1000 nM | 500 to 1000 nM | 500 to 1000 nM
COCCOc1cc2ncnc(Oc3cccc(NC(=O)Nc4cc(C(C)(C)C)on4)c3)c2cc1OC [Ex 7, 1-(5-tert-Butylisoxazol-3-yl)-3-{3-[6-methoxy-7-(2-methoxyethoxy)quinazolin-4-yloxy]phenyl}urea hydrochloride] | < 250 nM | 250 to 500 nM | 250 to 500 nM | 250 to 500 nM
COc1cc2ncnc(Oc3cccc(NC(=O)Nc4cc(C(C)(C)C)on4)c3)c2cc1OCCN1CCC(CO)CC1 [Ex 17, 1-(5-tert-butylisoxazol-3-yl)-3-(3-(6-(2-(4-(hydroxymethyl)piperidin-1-yl)ethoxy)-7-methoxyquinazolin-4-yloxy)phenyl)urea] | 250 to 500 nM | 250 to 500 nM | 500 to 1000 nM | 500 to 1000 nM
COc1cc2ncnc(Oc3cccc(NC(=O)Nc4cc(C(C)(C)C)on4)c3)c2cc1OCCN1CCN(CCO)CC1 [Ex 19, 1-(5-tert-butylisoxazol-3-yl)-3-(3-(6-(2-(4-(2-hydroxyethyl)piperazin-1-yl)ethoxy)-7-methoxyquinazolin-4-yloxy)phenyl)urea] | < 250 nM | 250 to 500 nM | 250 to 500 nM | 250 to 500 nM
COc1cc2c(Oc3cccc(NC(=O)Nc4cc(C(C)(C)C)on4)c3)ncnc2cc1O[C@H]1CCN(C)C1 [Ex 97, (S)-1-(5-tert-butylisoxazol-3-yl)-3-(3-(6-methoxy-7-(1-methylpyrrolidin-3-yloxy)quinazolin-4-yloxy)phenyl)urea mono acetate] | 250 to 500 nM | > 1000 nM | 500 to 1000 nM | 250 to 500 nM
COc1cc2c(Oc3cccc(NC(=O)Nc4cc(C(C)(C)C)on4)c3)ncnc2cc1O[C@@H]1CCN(C)C1 [Ex 99, (R)-1-(5-tert-butylisoxazol-3-yl)-3-(3-(6-methoxy-7-(1-methylpyrrolidin-3-yloxy)quinazolin-4-yloxy)phenyl)urea mono acetate] | 250 to 500 nM | > 1000 nM | 250 to 500 nM | 250 to 500 nM
COc1cc2ncnc(Sc3cccc(NC(=O)Nc4cc(C(C)(C)C)on4)c3)c2cc1OCCN1CCC(CO)CC1 [Ex 66, 1-(5-tert-butylisoxazol-3-yl)-3-(3-(6-(2-(4-(hydroxymethyl)piperidin-1-yl)ethoxy)-7-methoxyquinazolin-4-ylthio)phenyl)urea] | < 250 nM | > 1000 nM | 500 to 1000 nM | 500 to 1000 nM
COc1cc2c(Oc3cccc(NC(=O)Nc4cc(C(C)(C)C)on4)c3)ncnc2cc1OCCCN1CCC(O)C1 (stereo not drawn) [Ex 31, 1-(5-tert-butyl-isoxazol-3-yl)-3-(3-{7-[3-(3-hydroxy-pyrrolidin-1-yl)-propoxy]-6-methoxy-quinazolin-4-yloxy}-phenyl)-urea] | < 250 nM | < 250 nM | 250 to 500 nM | 250 to 500 nM
COc1cc2ncnc(Sc3cccc(NC(=O)Nc4cc(C(C)(C)C#N)nn4-c4ccccc4)c3)c2cc1OC [Ex 309, 1-(3-(2-cyanopropan-2-yl)-1-phenyl-1H-pyrazol-5-yl)-3-(3-(6,7-dimethoxyquinazolin-4-ylthio)phenyl)urea] | < 250 nM |  | 500 to 1000 nM | 500 to 1000 nM
COc1cc2ncnc(Oc3cccc(NC(=O)Nc4cc(C(C)(C)C)nn4C)c3)c2cc1OC [Ex 158, 1-(3-tert-butyl-1-methyl-1H-pyrazol-5-yl)-3-(3-(6,7-dimethoxyquinazolin-4-yloxy)phenyl)urea] | 250 to 500 nM | > 1000 nM | 500 to 1000 nM | 
CCOc1cc2c(Oc3cccc(NC(=O)Nc4cc(C(C)(C)C)on4)c3)ncnc2cc1OC [Ex 11, 1-(5-tert-butylisoxazol-3-yl)-3-(3-(6-ethoxy-7-methoxyquinazolin-4-yloxy)phenyl)urea] | < 250 nM | < 250 nM | 500 to 1000 nM | 
COCCOc1ccc2ncnc(Oc3cccc(NC(=O)Nc4cc(C(C)(C)C)on4)c3)c2c1 [Ex 40, 1-(5-tert-butylisoxazol-3-yl)-3-(3-(6-(2-methoxyethoxy)quinazolin-4-yloxy)phenyl)urea] | < 250 nM | 500 to 1000 nM | 250 to 500 nM | 
COc1cc2ncnc(Oc3cccc(NC(=O)Nc4cc(CN5CCOCC5)cc(C(F)(F)F)c4)c3)c2cc1OC [Ex 151, 1-(3-(6,7-dimethoxyquinazolin-4-yloxy)phenyl)-3-(3-(morpholinomethyl)-5-(trifluoromethyl)phenyl)urea] | > 1000 nM | > 1000 nM | 250 to 500 nM | 

Other lines, results leading:

IC50 [1] | EC50 (A375 cells) | Kd (RAF kinases [2]) | Kd (RAF kinases [3]) | Compound
< 250 nM | 250 to 500 nM | 250 to 500 nM | 500 to 1000 nM | COc1cc2ncnc(Sc3cccc(NC(=O)Nc4cc(C(C)(C)C)on4)c3)c2cc1OC [Ex 46, 1-(5-tert-butylisoxazol-3-yl)-3-(3-(6,7-dimethoxyquinazolin-4-ylthio)phenyl)urea]
< 250 nM | 250 to 500 nM | 250 to 500 nM | 500 to 1000 nM | COc1cc2ncnc(Sc3cccc(NC(=O)Nc4cc(C(C)(C)C)on4)c3)c2cc1OCCCN1CCN(S(C)(=O)=O)CC1 [Ex 60, 1-(5-tert-butylisoxazol-3-yl)-3-(3-(7-methoxy-6-(3-(4-(methylsulfonyl)piperazin-1-yl)propoxy)quinazolin-4-ylthio)phenyl) urea]
< 250 nM | > 1000 nM | 500 to 1000 nM | 500 to 1000 nM | COc1cc2c(Sc3cccc(NC(=O)Nc4cc(C(C)(C)C)on4)c3)ncnc2cc1OCCN1CCOCC1 [Ex 79, 1-(5-tert-butylisoxazol-3-yl)-3-(3-(6-methoxy-7-(2-morpholinoethoxy)quinazolin-4-ylthio)phenyl)urea]
< 250 nM | < 250 nM | 250 to 500 nM | 250 to 500 nM | COc1cc2ncnc(Oc3cccc(NC(=O)Nc4cc(C(C)(C)C)on4)c3)c2cc1OCCCN1CCN(S(C)(=O)=O)CC1 [Ex 25, 1-(5-tert-butylisoxazol-3-yl)-3-(3-(7-methoxy-6-(3-(4-(methylsulfonyl)piperazin-1-yl)propoxy)quinazolin-4-yloxy)phenyl)urea]
< 250 nM | > 1000 nM | 250 to 500 nM | 500 to 1000 nM | COc1cc2ncnc(Sc3cccc(NC(=O)Nc4cc(C(C)(CF)CF)no4)c3)c2cc1OC [Ex 160, 1-[3-(1,3-difluoro-2-methylpropan-2-yl)isoxazol-5-yl]-3-[3-(6,7-dimethoxyquinazolin-4-ylthio)phenyl]urea]
< 250 nM | > 1000 nM | 500 to 1000 nM | 500 to 1000 nM | COc1cc2ncnc(Sc3cccc(NC(=O)Nc4cc(C(C)(C)C)on4)c3)c2cc1OCCCN1CCCCC1 [Ex 57, 1-(5-tert-butylisoxazol-3-yl)-3-(3-(7-methoxy-6-(3-(piperidin-1-yl)propoxy)quinazolin-4-ylthio)phenyl) urea]
< 250 nM | < 250 nM | 250 to 500 nM | 500 to 1000 nM | CCOc1cc2c(Sc3cccc(NC(=O)Nc4cc(C(C)(C)C)on4)c3)ncnc2cc1OC [Ex 56, 1-(5-tert-butylisoxazol-3-yl)-3-(3-(6-ethoxy-7-methoxyquinazolin-4-ylthio)phenyl)urea]
< 250 nM | < 250 nM | 250 to 500 nM |  | COc1cc2c(Oc3cccc(NC(=O)Nc4cc(C(C)(C)C)on4)c3)ncnc2cc1OCCCN1CCN(CCO)CC1 [Ex 30, 1-(5-tert-butylisoxazol-3-yl)-3-(3-(7-(3-(4-(2-hydroxyethyl)piperazin-1-yl)propoxy)-6-methoxyquinazolin-4-yloxy)phenyl)urea]
< 250 nM | > 1000 nM | 500 to 1000 nM | 250 to 500 nM | COc1cc2ncnc(Sc3cccc(NC(=O)Nc4cc(C(C)(C)C)on4)c3)c2cc1OCCCN1CCC(CO)CC1 [Ex 58, 1-(5-tert-butylisoxazol-3-yl)-3-(3-(6-(3-(4-(hydroxymethyl)piperidin-1-yl)propoxy)-7-methoxyquinazolin-4-ylthio)phenyl)urea]
> 1000 nM | > 1000 nM | 250 to 500 nM | 500 to 1000 nM | COc1cccc(NC(=O)Nc2cccc(Oc3ncnc4cc(OC)c(OC)cc34)c2)c1 [Ex 178, 1-(3-(6,7-dimethoxyquinazolin-4-yloxy)phenyl)-3-(3-methoxyphenyl)urea]
< 250 nM | > 1000 nM | 250 to 500 nM | 250 to 500 nM | COc1cc2ncnc(Sc3cccc(NC(=O)Nc4cc(C(C)(C)C)on4)c3)c2cc1OCCCN1CCN(C)CC1 [Ex 59, 1-(5-tert-butylisoxazol-3-yl)-3-(3-(7-methoxy-6-(3-(4-methylpiperazin-1-yl)propoxy)quinazolin-4-ylthio)phenyl)urea]
< 250 nM | 500 to 1000 nM | 250 to 500 nM |  | COc1cc2ncnc(Oc3cccc(NC(=O)Nc4cc(C(C)(C)C)on4)c3)c2cc1OC [Ex 1, 1-(5-tert-butylisoxazol-3-yl)-3-(3-(6,7-dimethoxyquinazolin-4-yloxy)phenyl)urea]
250 to 500 nM | > 1000 nM | 500 to 1000 nM |  | COc1cc2ncnc(Sc3cccc(NC(=O)Nc4cc(C(C)(C)C)on4)c3)c2cc1OCCN1CCCCC1 [Ex 65, 1-(5-tert-butylisoxazol-3-yl)-3-(3-(7-methoxy-6-(2-(piperidin-1-yl)ethoxy)quinazolin-4-ylthio)phenyl)urea]
< 250 nM | < 250 nM | 500 to 1000 nM |  | COc1cc2ncnc(Oc3cc(NC(=O)Nc4cc(C(C)(C)C)on4)ccc3F)c2cc1OC [Ex 9, 1-(5-tert-butylisoxazol-3-yl)-3-(3-(6,7-dimethoxyquinazolin-4-yloxy)-4-fluorophenyl)urea]
